Values of other authors, collected in US8993607B2, “Therapeutic compounds” (Rutgers, The State University of New Jersey, priority 2007, dated 2015).
pIC50: −log10 of the molar value.

Assays:
SK-N-AS = details: human neuroblastoma cell line SK-N-AS; Binz et al., 2005; read-out: cytotoxicity IC50
K62 leukemia cells = details: Tauchi et al., 2003
LAN1 = details: human neuroblastoma cell line LAN1; Binz et al., 2005; read-out: cytotoxicity IC50
[1] = tested on: natural bone marrow CD34-positive cells; details: compared, Tauchi et al., 2003
telomerase = details: read-out: telomerase inhibitory activity IC50
LANS = details: human neuroblastoma cell line LANS; Binz et al., 2005; read-out: cytotoxicity IC50
WAC2 = details: human neuroblastoma cell line WAC2; Binz et al., 2005; read-out: cytotoxicity IC50
MiaPaCa = details: human pancreatic carcinoma MiaPaCa; Liu et al., 2005; read-out: cytotoxicity IC50
[2] = tested on: human breast cancer cell lines HBC-4, BSY-1, HBC-5, MCF-7, and MDA-MB-231; details: range over HBC-4, BSY-1, HBC-5, MCF-7, MDA-MB-231; Sohda et al., 2005

pIC50 (telomerase)	GI50 [2]	SMILES	pIC50 (SK-N-AS)	plating efficiency (K62 leukemia cells)	pIC50 (LAN1)	effect on burst-forming units—erythrocyte (BFU-E) and colony-forming units—granulocyte/macrophage (CFU-GM) [1]	pIC50 (LANS)	pIC50 (WAC2)	pIC50 (MiaPaCa)
8.30		Cc1oc2nc1-c1nc(co1)-c1nc(co1)-c1nc(co1)-c1nc(co1)-c1nc(co1)C1=NC(CS1)c1nc-2c(C)o1 (stereo not drawn) [telomestatin]	6.10	suppress the plating efficiency	5.40	much lesser effect	5.60	5.49	6.30
	15 to 33 nM	CC[C@H](C)[C@@H]1NC(=O)c2nc(oc2-c2ccccc2)-c2csc(n2)-c2coc(n2)-c2coc(n2)-c2coc(n2)CNC(=O)[C@@H](C(C)C)NC1=O [YM-216391]							
